Laboratory results reported in PMC9882606, “Rationally designed inhibitors of the Musashi protein-RNA interaction by hotspot mimicry” (Research Square, 2023).

How the values were obtained:
K562 cells = assay: Cell growth/survival, K562; format: cell-based, human
Source text: It is difficult to determine precisely why Ro and R12–8–44–3 have such dramatically different behavior in this assay: one possibility is that Ro, a repurposed compound originally reported for activity unrelated to MSI2, may exert its cytotoxic effect in these cell lines through molecular targets unrelated to MSI2.

hnRNP A1 RRM1 domain = molecular target: T1, hnRNP A1 RRM1 domain (Homo sapiens, UniProt P09651); assay: FP competition assay with the same fluorescently-labeled RNA; format: binding
T1 construct: we expressed and purified hnRNP A1’s RRM1 domain; made in house
T1 sequence (P09651 14-97 limits assumed): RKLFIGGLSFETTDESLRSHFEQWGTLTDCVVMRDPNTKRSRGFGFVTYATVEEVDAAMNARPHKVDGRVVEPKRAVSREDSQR

MSI2 [1] = molecular target: T2, MSI2 (Homo sapiens, UniProt Q96DH6); assay: mRNA immunoprecipitation (RIP) with anti-MSI2 in PC9 cells; format: cell-based; design: endogenous in cells; host or cells: PC9; conditions: PC9, 10 μM, 8 hours
T2 sequence (Q96DH6 whole entry): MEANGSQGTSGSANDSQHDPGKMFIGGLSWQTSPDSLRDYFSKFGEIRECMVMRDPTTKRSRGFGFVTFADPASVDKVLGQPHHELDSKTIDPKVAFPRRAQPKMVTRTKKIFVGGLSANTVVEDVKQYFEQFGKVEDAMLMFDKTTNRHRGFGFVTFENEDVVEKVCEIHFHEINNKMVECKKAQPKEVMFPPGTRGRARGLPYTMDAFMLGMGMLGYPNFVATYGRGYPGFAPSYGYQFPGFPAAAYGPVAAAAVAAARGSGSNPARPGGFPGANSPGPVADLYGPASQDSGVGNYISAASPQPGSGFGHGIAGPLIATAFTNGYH
Source text: Among previously described targets of MSI2 are PTP4A, SMAD3, EGFR, and MSI2 itself. To test for disruption of MSI2 with these cognate mRNAs upon treatment with R12–8–44–3, we used mRNA immunoprecipitation (RIP): we used an anti-MSI2 antibody to immunoprecipitate MSI2, then reverse transcribed and analyzed by qPCR to determine the amount of each specific mRNA that was bound to MSI2. As an important control to ensure that the resulting mRNA was indeed brought down by MSI2, we additionally verified that using a negative control antibody (instead of anti-MSI2) brought with it 100-fold less of each target mRNA (Figure S10). As a separate negative control, GAPDH mRNA was also quantified in the context of these studies (since GAPDH is not thought to be a target of MSI2).
PC9 cells were then treated with 10 μM of each compound for 8 hours and then analyzed by RIP.
Figure 7: Cellular characterization of MSI2 inhibition by R12–8–44–3. (A) Quantification of mRNA immunoprecipitation (RIP) results. […] After immunoprecipitation with anti-MSI2, mRNA targets were quantified. The amount of each target mRNA in the pulldown was calculated relative to the input, and results from all targets were normalized to PTP4A1. […] Cells were treated with indicated compounds at two concentrations (5 μM and 20 μM) for 48 hours, then protein levels of relevant MSI2 targets were determined (EGFR, SMAD3, and MSI2). […]

MSI2 [2] = molecular target: T2, MSI2; assay: Cellular thermal shift assay (CETSA) in PC9 cells; format: cell-based; design: endogenous in cells; host or cells: PC9; conditions: PC9, 3 hours, 20 μM or 40 μM, heated to 49 °C
Source text: To explore the effect of these MSI2 inhibitors in a cancer-relevant cellular context, we selected two MSI2-dependent cancer cell lines: non-small cell lung cancer cell line PC9 and leukemia cell line K562 [73, 98–101]. Upon treatment of PC9 cells with Ro, R12–8–44–3, or negative control R12-neg, we found at multiple time points that cellular MSI2 protein levels were unchanged (Figure 6a). To confirm target engagement, we therefore adapted the cellular thermal shift assay (CETSA). […]
Figure 6: Direct cellular engagement of MSI2 interaction by R12–44–3. […] MSI2 protein abundance was then quantified and normalized to untreated sample. One representative image is shown; quantification is presented as the average ± S.E.M. from 3 independent replicates. […] Cells were briefly incubated at temperatures between 40 °C to 67 °C, then centrifuged and the amount of MSI2 remaining in the soluble fraction was quantified by Western blotting. […] One representative image is shown; quantification is presented as the average ± S.E.M. from 3 independent replicates, normalized first to beta-actin and then to DMSO control. […] One representative image is shown; quantification is presented as the average ± S.E.M. from 3 independent replicates, normalized first to beta-actin and then to DMSO control. […]

PC9 cells = assay: Clonogenic assay, combination with osimertinib, PC9; format: cell-based, human; conditions: PC9, 7 days, 2 nM osimertinib with 10 μM compound
Protocol: Figure 7: Cellular characterization of MSI2 inhibition by R12–8–44–3. (A) Quantification of mRNA immunoprecipitation (RIP) results. Cells were treated with 10 μM of the indicated compounds for 8 hours. After immunoprecipitation with anti-MSI2, mRNA targets were quantified. The amount of each target mRNA in the pulldown was calculated relative to the input, and results from all targets were normalized to PTP4A1. Treating cells with R12–8–44–3 disrupted the interaction with all four cognate mRNAs (PTP4A, SMAD3, EGFR, and MSI2). Data are presented as the average ± S.E.M. from at least 3 independent replicates. […] Cells were treated with indicated compounds at two concentrations (5 μM and 20 μM) for 48 hours, then protein levels of relevant MSI2 targets were determined (EGFR, SMAD3, and MSI2). One representative image is shown; quantification is presented as the average ± S.E.M. from at least 3 independent replicates, normalized first to beta-actin and then to DMSO-treated cells. (C) Cell viability dose-response quantified by CellTiter-Blue after 3 days (left) and cell proliferation with 10μM of compounds quantified by clonogenic assay after 7 days (right). […] (D) Cell viability quantified by clonogenic assay of PC9 cell line after 7-day treatment with 2 nM osimertinib (osi alone), osimertinib with 10 μM R12–8–44–3, or osimertinib with 10 μM R12-neg. […]

inhibition of hnRNP A1 RNA binding (hnRNP A1 RRM1 domain): does not inhibit
SMILES: Cc1cc(C(=O)OCc2nc(N)c3c(C)c(C)sc3n2)c(N)cc1F [R12–8–44–3]
cell growth/survival (K562 cells): results in alignment with our observations from PC9 cells
amount of target mRNA associated with MSI2 (PTP4A, SMAD3, EGFR, MSI2) (MSI2 [1]): statistically significant reduction in the amount of mRNA associated with MSI2
soluble MSI2 after heating (CETSA) (MSI2 [2]): confers protection against thermal-induced aggregation
clonogenic assay in combination with osimertinib (PC9 cells): robust combined effect with osimertinib
